# Source: paper PMC6044610 (ACS Omega, 2016)
# Tests used:
# [1] = test system: P. falciparum (CQ-resistant) W2 strain; assay: In vitro antimalarial SYBR Green I fluorescence assay, Pf W2; type: cell-based; details: Plasmodium falciparum, W2, 72 h, read-out: IC50 Pf W2
# [2] = test system: P. falciparum (3D7) trophozoite development; type: cell-based, Plasmodium falciparum; details: 5 μM, ~24 h treatment from midring stage
# [3] = cited from earlier work
smiles,measurement,setting,value
"CCN(CC)CCCC(C)Nc1ccnc2cc(Cl)ccc12 (stereo not drawn) [CQ, chloroquine]",IC50,[1],430.6 ± 1.05 nM
same,hemozoin in the food vacuole / parasite development after treatment,[2],no hemozoin was seen in the food vacuole
same,"log Kass with heme, reported value",[3],5.15
